Reference: ChEMBL document CHEMBL4052651, “Searching for novel N1-substituted benzimidazol-2-ones as non-nucleoside HIV-1 RT inhibitors” (Bioorg Med Chem, 2017)
pEC50, pIC50: −log10 of the molar value.

Key:
[1] = target: Human immunodeficiency virus type 1 reverse transcriptase (Human immunodeficiency virus 1, UniProt Q72547, Y181C); experiment: Inhibition of HIV-1 reverse transcriptase Y181C mutant assessed as reduction in dTTP incorporation using poly(rA)/oligo(dT)16 as template/primer after 40 mins by PicoGreen dye based spectrofluorometric analysis
[2] = test system: Human immunodeficiency virus 1; experiment: Antiviral activity against HIV1 3B infected in human MT4 cells assessed as inhibition of virus-induced cytopathic effect after 5 days by MTT assay; format: functional, cell-based; conditions: Human immunodeficiency virus 1, 3B, MT4, 120 h
[3] = target: Human immunodeficiency virus type 1 reverse transcriptase (Human immunodeficiency virus 1, UniProt Q72547, V106A); experiment: Inhibition of HIV-1 reverse transcriptase V106A mutant assessed as reduction in dTTP incorporation using poly(rA)/oligo(dT)16 as template/primer after 40 mins by PicoGreen dye based spectrofluorometric analysis
[4] = target: Human immunodeficiency virus type 1 reverse transcriptase (Human immunodeficiency virus 1, UniProt Q72547, G190A); experiment: Inhibition of HIV-1 reverse transcriptase G190A mutant assessed as reduction in dTTP incorporation using poly(rA)/oligo(dT)16 as template/primer after 40 mins by PicoGreen dye based spectrofluorometric analysis
[5] = target: Human immunodeficiency virus type 1 reverse transcriptase (Human immunodeficiency virus 1, UniProt Q72547, E138K); experiment: Inhibition of HIV-1 reverse transcriptase E138K mutant assessed as reduction in dTTP incorporation using poly(rA)/oligo(dT)16 as template/primer after 40 mins by PicoGreen dye based spectrofluorometric analysis
[6] = target: Human immunodeficiency virus type 1 reverse transcriptase (Human immunodeficiency virus 1, UniProt Q72547); experiment: Inhibition of recombinant wild-type HIV-1 reverse transcriptase p66/p51 RNA-dependent DNA polymerase activity expressed in Escherichia coli JM109 assessed as reduction in dTTP incorporation using poly(rA)/oligo(dT)16 as template/primer after 40 mins by PicoGreen dye based spectrofluorometric analysis
[7] = Selectivity index, ratio of CC50 for human MT4 cells to EC50 for HIV1 3B infected in human MT4 cells; format: toxicity, cell-based; conditions: HIV1 3B infected MT4 cells, read-out: Ratio CC50/EC50
[8] = target: Human immunodeficiency virus type 1 reverse transcriptase (Human immunodeficiency virus 1, UniProt Q72547, K103N); experiment: Inhibition of HIV-1 reverse transcriptase K103N mutant assessed as reduction in dTTP incorporation using poly(rA)/oligo(dT)16 as template/primer after 40 mins by PicoGreen dye based spectrofluorometric analysis
[9] = target: Human immunodeficiency virus type 1 reverse transcriptase (Human immunodeficiency virus 1, UniProt Q72547, Y188L); experiment: Inhibition of HIV-1 reverse transcriptase Y188L mutant assessed as reduction in dTTP incorporation using poly(rA)/oligo(dT)16 as template/primer after 40 mins by PicoGreen dye based spectrofluorometric analysis
[10] = Cytotoxicity against human MT4 cells assessed as reduction in cell viability after 5 days by MTT assay; format: cell-based
[11] = target: Human immunodeficiency virus type 1 reverse transcriptase (Human immunodeficiency virus 1, UniProt Q72547, L100I); experiment: Inhibition of HIV-1 reverse transcriptase L100I mutant assessed as reduction in dTTP incorporation using poly(rA)/oligo(dT)16 as template/primer after 40 mins by PicoGreen dye based spectrofluorometric analysis

Compound | pIC50 [1] | pEC50 [2] | pIC50 [3] | pIC50 [4] | pIC50 [5] | pIC50 [6] | selectivity ratio [7] | pIC50 [8] | pIC50 [9] | CC50 at 120 h [10] | pIC50 [11]
O=c1[nH]c2ccc(Cl)cc2n1S(=O)(=O)Cc1ccccc1Cl | < 3.47 | 6.72 | 5.74 | 3.62 | 4.92 | 5.89 | 271 | < 3.47 | < 3.47 | 52 µM | 5.15
Cc1ccccc1CS(=O)(=O)n1c(=O)[nH]c2ccc(Cl)cc21 | < 3.45 | 5.00 | < 3.45 | < 3.45 | < 3.45 | 4.68 | 24 | < 3.45 | < 3.45 | 238 µM | ≤ 4.19
O=c1[nH]c2ccc(Cl)cc2n1S(=O)(=O)CCc1ccccc1 | < 3.45 | < 4.52 | < 3.45 | < 3.45 | < 3.45 | 4.12 | < 1 | < 3.45 | < 3.45 | 30 µM | < 3.45
Cc1cccc(CCS(=O)(=O)n2c(=O)[nH]c3ccc(Cl)cc32)c1 | 4.10 | < 4.51 | 4.13 | 4.05 | 4.06 | 4.41 | < 1 | 3.92 | 3.66 | 31 µM | 4.19
O=c1[nH]c2ccc(Cl)cc2n1S(=O)(=O)Cc1ccccc1 | ≤ 3.56 | 6.08 | 5.03 | 3.60 | 4.01 | 4.77 | 187 | < 3.43 | < 3.43 | 155 µM | 4.05
O=c1[nH]c2ccc(Cl)cc2n1S(=O)(=O)Cc1ccc(Cl)cc1 | < 3.47 | 5.30 | 4.82 | < 3.47 | ≤ 3.55 | 4.74 | 15 | < 3.47 | < 3.47 | 77 µM | 4.04
Cc1ccc(CS(=O)(=O)n2c(=O)[nH]c3ccc(Cl)cc32)cc1 | 3.74 | 5.71 | 5.18 | ≤ 3.51 | 4.20 | 5.65 | 48 | 3.55 | 3.55 | 93 µM | 4.26
Cc1ccc(CCS(=O)(=O)n2c(=O)[nH]c3ccc(Cl)cc32)cc1 | 3.75 | < 3.80 | 4.02 | 4.05 | 3.80 | 3.66 | < 1 | < 3.47 | 3.60 | 161 µM | 3.51
O=c1[nH]c2ccc(Cl)cc2n1S(=O)(=O)Cc1cccc(Cl)c1 | < 3.47 | 5.94 | 5.18 | 3.59 | 4.19 | 5.22 | 134 | < 3.47 | < 3.47 | 152 µM | 4.54
Cc1ccccc1CCS(=O)(=O)n1c(=O)[nH]c2ccc(Cl)cc21 | 4.49 | < 4.49 | 4.36 | 4.27 | 4.31 | 4.54 | < 1 | 4.05 | 3.78 | 32 µM | 4.23
O=c1[nH]c2ccc(Cl)cc2n1S(=O)(=O)CCc1cccc(Cl)c1 | 4.13 | < 4.19 | 4.35 | 3.59 | < 3.49 | 3.88 | < 1 | < 3.49 | < 3.49 | 63 µM | ≤ 3.55
Cc1ccnc2c1NC(=O)c1cccnc1N2C1CC1 [NEVIRAPINE] |  | 6.74 |  |  |  |  |  |  |  | > 15 µM | 
O=C1Nc2ccc(Cl)cc2[C@@](C#CC2CC2)(C(F)(F)F)O1 [EFAVIRENZ] |  |  |  |  |  |  |  |  |  | > 6.33 µM | 
O=c1[nH]c2ccc(Cl)cc2n1S(=O)(=O)CCc1ccccc1Cl | 3.75 | < 4.00 | 3.86 | 3.55 | ≤ 3.49 | 3.94 | < 1 | < 3.49 | < 3.49 | 100 µM | 3.67
Cc1cccc(CS(=O)(=O)n2c(=O)[nH]c3ccc(Cl)cc32)c1 | 4.01 | 7.10 | 6.05 | 3.88 | 5.12 | 6.10 | 1380 | 3.98 | < 3.45 | 110 µM | 5.52
O=c1[nH]c2ccc(Cl)cc2n1S(=O)(=O)CCc1ccc(Cl)cc1 | 3.97 | < 4.04 | 4.16 | 4.16 | 3.97 | 4.02 | < 1 | 3.64 | 3.64 | 91 µM | 3.74
